# From BindingDB's records for PubMed 34138567 (National Clinical Research Center For Geriatrics, 2021)
# Legend:
# [1] = Inhibition of PI3Kdelta in anti-FceRI-stimulated human Basophil cells degranulation incubated for 30 mins
# [2] = Inhibition of PI3Kdelta in conA-stimulated primary human T cell proliferation incubated for 1 hr by CellTiter-glo luminescent assay
smiles,measurement,setting,value
C[C@H]1CC[C@@H](c2nc3cccc(Cl)c3c(=O)n2-c2cccc(F)c2)N1c1ncnc2[nH]cnc12,IC50,[1],8.2 nM
same,IC50,[2],21 nM
